This note sets out measurements from patent US9657035B1, “Method of treating cancer and gold(III) complexes as anti-cancer agents” (KING FAHD UNIVERSITY OF PETROLEUM AND MINERALS, priority 2015, dated 2017).

The subject of assay [1] is cisplatin-resistant clone A2780cis. Put plainly: Cell proliferation MTT assay, 72 h. It counts as cell-based, human. The note with it: for IC50: A2780cis cells, 72 h, MTT, mean±SEM; for Fold resistance A2780cis/A2780 ratio: ratio of IC50 A2780cis to A2780. As to the method:
(§1) Complexes 1 and 2 were dissolved (10 mM) in DMSO and stored at -80° C. at volumes of 500 μL or aliquots with volumes of 10 μL were taken and stored at -20° C. (used once without refreezing). The compounds were then diluted in RPMI medium immediately before use. Cisplatin was purchased from Mayne Pharma. Culture medium with the same amount of drug-free DMSO was used as a negative control. The classical Hodgkin lymphoma L-540 cell line was obtained from the German Collection of Microorganisms and Cell Cultures (Braunschweig, Germany). Human ovarian epithelial carcinoma-derived cancer cells A2780 and its cisplatin-resistant clone A2780cis were from Sigma, Inc. (St. Louis, Mo., USA). The parent cisplatin-resistant subclone A2780cis was maintained by weekly treatment with 1 μM cisplatin ([…]. Celegato, C. Borghese, M. Mongiat, A. Colombatti, and D. Aldinucci, Clin. Cancer Res. vol. 20, pp. 5496-5506, 2014, incorporated herein by reference in its entirety). Cells were cultured at 37° C. in 5% CO2 in RPMI medium supplemented with 10% heat-inactivated FBS, 0.1% (w/v) L-glutamine and antibiotics (0.2 mg/mL penicillin and streptomycin). For the cell proliferation assay, 4.0×10^3 A2780 and A2780cis cells were seeded in 96-well flat-bottomed microplates in RPMI medium (100 μL) and incubated at 37° C. in a 5% CO2 atmosphere for 24 h (to allow cell adhesion) before drug testing. The medium was then removed and replaced with fresh medium containing the compounds to be tested and cisplatin at increasing concentrations (from 1 to 100 μM) at 37° C. for 72 h. Each treatment was performed in triplicate. Cell proliferation was assayed using the MTT assay. L-540 cells (2.0×10^5/ml) were seeded in 48-well plates and treated with increasing concentrations of complex 1 and complex 2. After 72 hours, the number of viable cells was evaluated by a trypan blue dye exclusion. The IC50 values (i.e., the half maximal inhibitory concentration, representing the concentration of a substance required for 50% inhibition in vitro) were calculated using CalcuSyn software (Biosoft, Ferguson, Mo., USA) (T. C. Chou, and P. Talalay, Adv. Enzyme Regul. vol. 22, pp. 27-55, 1984, incorporated herein by reference in its entirety). The results were presented as the mean±SEM of three replicate wells from three independent experiments. The cells were imaged under an inverted microscope (Eclipse TS/100, Nikon) with a photomicrographic system (DS Camera Control Unit DS-L2). Phase contrast micrographs were taken at a magnification of 4× (for L-540 cells) and 10× (for A2780 and A2780cis cells).
(In general: Tetrazolium dyes change colour on reduction, which living cells bring about.)

For assay [2], the system named is ovarian epithelial carcinoma-derived cancer cells A2780. Nature of the assay: Cell proliferation MTT assay, 72 h. Particulars: mean±SEM. The class given is cell-based, human. Here is the method: as §1
Assay [3] is described as follows: Kinetics of substitution reaction of gold(III) complexes with glutathione (UV-vis, 297 nm). It counts as physicochemical. Particulars: for second-order rate constant k for the reaction with GSH: at 298K, 20 mM NaCl, 297 nm; for ΔH^† activation enthalpy, reaction with GSH / ΔS^† activation entropy, reaction with GSH: from Eyring plots. As to the method: All kinetics measurements were made using a UV-vis spectrophotometer (Agilent Technologies, Cary 100 UV-Vis). Scanning kinetic mode was used to investigate the change in the electronic spectra for gold(III) complexes upon interaction with GSH to determine the effective wavelength for the reactions. Then, the kinetic mode was used to monitor the reaction progress at the selected wavelength. A solution containing 0.2 mM gold(III) complexes was prepared in water, and 40 mM sodium chloride was added to improve the stability of the mononuclear-gold(III) complexes by preventing hydrolysis of the chlorides (A. Djeković, B. Petrović, Z. D. Bugarcić, R. Puchta, and R. van Eldik, Dalton Trans., vol. 41, no. 13, pp. 3633-41, 2012, incorporated herein by reference in its entirety). A series of GSH solutions was also prepared. Equal volumes of gold(III) complex solution and GSH solution were mixed, and the spectral changes recorded using the scanning kinetic mode in the range from 200 nm to 350 nm. Then, the kinetic mode was used to follow the reaction at three different temperatures. The reaction between the gold(III)-diamine complexes and the GSH ligand to form gold(III)-complexes can be illustrated in following equation: […]
The rate (k) of the described reactions can be calculated from the slope of the linear plot of kobs versus GSH concentration according to eqn (1), where the rate of the reverse reaction (k−1) is obtained from the intercept of the straight line. kobs=k[GSH]+k−1[Cl] Eqn (1)
Using Microsoft Excel, the rate constants and activation parameters were calculated from Eyring plots: […]
The kinetics of the substitution reaction between the synthesized anticancer gold(III) complexes 1 and 2 with tripeptide glutathione were investigated spectrophotometrically by monitoring the spectral changes of the gold(III) complexes in solution with excess of GSH. […] Equal volumes of the gold(III) complexes and GSH were kept until thermal equilibration was achieved and then mixed directly inside a UV cell. The changes in the absorption at a selected wavelength (297 nm) under pseudo-first order conditions as functions of the glutathione concentration and temperature were collected. The […] rate constant (k) was obtained from the linear plot of kobs versus the total GSH concentration (1). NaCl was added in excess to avoid the hydrolysis of mononuclear-gold(III) diamine chloride, but this was not found to be effective for complex 2 (FIG. 2).

The test system of assay [4] is classical Hodgkin lymphoma L-540 cell line. Put plainly: In vitro cytotoxicity, trypan blue dye exclusion, 72 h. The class given is cell-based, human. Particulars: L-540 cells; for IC50: trypan blue assay. As to the method: Complexes 1 and 2 were dissolved (10 mM) in DMSO and stored at −80° C. at volumes of 500 μL or aliquots with volumes of 10 μL were taken and stored at −20° C. (used once without refreezing). The compounds were then diluted in RPMI medium immediately before use. Cisplatin was purchased from Mayne Pharma. Culture medium with the same amount of drug-free DMSO was used as a negative control.
The classical Hodgkin lymphoma L-540 cell line was obtained from the German Collection of Microorganisms and Cell Cultures (Braunschweig, Germany). Human ovarian epithelial carcinoma-derived cancer cells A2780 and its cisplatin-resistant clone A2780cis were from Sigma, Inc. (St. Louis, Mo., USA). The parent cisplatin-resistant subclone A2780cis was maintained by weekly treatment with 1 μM cisplatin (N. Casagrande, M. Celegato, C. Borghese, M. Mongiat, A. Colombatti, and D. Aldinucci, Clin. Cancer Res. vol. 20, pp. 5496-5506, 2014, incorporated herein by reference in its entirety). Cells were cultured at 37° C. in 5% CO2 in RPMI medium supplemented with 10% heat-inactivated FBS, 0.1% (w/v) L-glutamine and antibiotics (0.2 mg/mL penicillin and streptomycin).
For the cell proliferation assay, 4.0×10^3 A2780 and A2780cis cells were seeded in 96-well flat-bottomed microplates in RPMI medium (100 μL) and incubated at 37° C. in a 5% CO2 atmosphere for 24 h (to allow cell adhesion) before drug testing. The medium was then removed and replaced with fresh medium containing the compounds to be tested and cisplatin at increasing concentrations (from 1 to 100 μM) at 37° C. for 72 h. Each treatment was performed in triplicate. Cell proliferation was assayed using the MTT assay. L-540 cells (2.0×10^5/ml) were seeded in 48-well plates and treated with increasing concentrations of complex 1 and complex 2. After 72 hours, the number of viable cells was evaluated by a trypan blue dye exclusion. […]

As a reminder, the IC50 is the concentration that inhibits the measured activity by half. A high value points to weaker potency.

For the compound `N.N.[Cl][Pt][Cl]` [Cisplatin, reference compound], the results for the half-maximal inhibitory concentration (IC50) in assay [1] and in assay [2] were 17.6 µM and 1.8 µM, respectively. Also, the “Fold resistance A2780cis/A2780 ratio” value was found to be 9.77 in assay [1] and 9.7 in assay [1] (listed as cisplatin).

Take `NC1CCCCC1N.[Au+3].[Cl-].[Cl-].[Cl-]` [Complex 1, 1(R),2(R)-[(DACH)AuCl2]Cl]: in assay [1], inhibition was half-maximal at 61.3 µM (IC50) and the “Fold resistance A2780cis/A2780 ratio” value is listed as 3.90. Moreover, the IC50 in assay [2] came out at 15.7 µM. In addition, in assay [3], the “Ea activation energy, reaction with GSH” value worked out at 7.65 kcal/mol; the “second-order rate constant k for the reaction with GSH” value was 1.14 M⁻¹ s⁻¹; the “ΔH^† activation enthalpy, reaction with GSH” value was 7.17 kcal/mol; the “ΔS^† activation entropy, reaction with GSH” value is listed as −137 JK^−1mol^−1. Also, half-maximal inhibition in assay [4] (IC50) required 70.4 µM.

Turning to `NC1CCCCC1N.NC1CCCCC1N.[Au+3].[Cl-].[Cl-].[Cl-]` [Complex 2, 1(R),2(R)-[(DACH)2Au]Cl3], in assay [1], the half-maximal inhibitory concentration (IC50) was 31.1 µM and the “Fold resistance A2780cis/A2780 ratio” value is on record as 4.45. Besides, the IC50 in assay [2] (listed as 2) is 6.98 µM. In addition, the IC50 in assay [2] (listed as (2)) was found to be 6.9 ± 0.6 µM. In assay [3], the “Ea activation energy, reaction with GSH” value came out at 4.54 kcal/mol; the “second-order rate constant k for the reaction with GSH” value was found to be 0.31 M⁻¹ s⁻¹; the “ΔH^† activation enthalpy, reaction with GSH” value amounted to 4.06 kcal/mol; the “ΔS^† activation entropy, reaction with GSH” value is given as −189 JK^−1mol^−1. Further, in assay [4], the “fold more active than complex 1 (L-540 IC50)” value was found to be 7 fold and it took 9.8 µM to reach half-maximal inhibition (IC50).
